Experimental data as given in patent publication US20240218385A1, “NEGATIVE-STRAND RNA VIRAL VECTOR AND PLANT GENOME EDITING METHOD WITHOUT TRANSFORMATION” (ZHEJIANG UNIVERSITY, priority 2021, published 2024).

Key:
Format in all cases: cell-based
[1] = system: PDS gene crPDS1 target site; experiment: Mutation genotypes at the crPDS1 target in regenerated N. benthamiana plants after antiviral treatment (HTS); conditions: for proportion of M0 plants with mutations at the target site: ribavirin 40 mg/L, favipiravir 40 mg/L, remdesivir 1.2 mg/L
Source text: Plant regeneration through culturing the leaf tissues infected with the TSWV vectors are usually ineffective in eliminating the virus. The embodiment investigated the effect of antiviral treatment during plant regeneration on virus clearance using leaf tissues infected with the TSWV-Cas12a-crRNA vector targeting the N. benthamiana crPDS1 site. […] After 35 days of culturing, explants together with induced callus were transferred to an induction medium without antiviral agents until day 55, and then the regenerated seedlings were transferred to a rooting medium. Three independent biological replicates were included in each group, and 30 plants were randomly selected in each biological replicate of each group for subsequent analysis. Total RNA was extracted from M0 regenerated seedlings, and RT-PCR was conducted using the TSWV N specific primers N/F ([…]; SEQ ID NO: 131) and N/R ([…]; SEQ ID NO: 132) to examine the virus clearance rate. The primers Nb/actin/F ([…]; SEQ ID NO: 133) and Nb/actin/R ([…]; SEQ ID NO: 134) for amplification of the NbActin cDNA served as an internal control. […] In contrast, the mock treatment had only 4.4% of virus-free regenerated plants.
To further evaluate the effect of drug treatment on the efficiency of gene editing in the regenerated plants, DNA sequences containing the target loci were PCR amplified using specific primers (SEQ ID NO: 70 and 71), and the resulting amplicons were high-throughput sequenced. The mutation type of each plant was analyzed, and the editing efficiency of each group was calculated. We used the following definitions to call the putative genotype: wild-type (WT) with editing efficiency (indels %) of 0-10.0%; chimeric (Chi) with 10%<indels %≤35.0%; heterozygous (He) with 35.0%<indels %≤80.0%, i.e., one allele is edited at the target site but the other allele is wild-type; homozygous (Ho) with indels % between 80.0% and 100.0% if both alleles have the same type of editing, and biallelic (Bi) if two alleles produced two different types of editing.

[2] = system: TSWV; experiment: TSWV clearance from regenerated N. benthamiana plants by antiviral treatment during tissue culture (RT-PCR with N-specific primers); conditions: 40 mg/L in medium; explants infected with TSWV-Cas12a-crRNA targeting crPDS1
[3] = system: TSWV; experiment: TSWV clearance from regenerated tobacco plants by antiviral treatment
Source text: (§1) This embodiment further investigates the impact of antiviral drug treatment on virus clearance and mutant plant recovery using tobacco leaf tissues infected with the TSWV vectors for tissue culture and regeneration. We used the recombinant TSWV-Cas12a-crRNA vector described in Example 24 as an example, which targets the crPDS1 target sites of both PDS genes in tobacco. The systemic leaves infected with this virus vector were used as explants for tissue culture and plant regeneration, following the same experimental protocol as described in Example 24.
(§2) The distribution of mutant genotypes in the regenerated plants from each drug treatment group was further analyzed.

[4] = system: PDS genes crPDS1 target sites; experiment: Target mutations in regenerated tobacco plants after antiviral treatment (HTS)
Source text: as §1, §2

Structure (SMILES)	total editing efficiency compared to the mock group ([1]; M0 plants)	proportion of Ho/Bi types compared to the mock group ([1]; M0 plants, PDSa and PDSb)	proportion of M0 plants with mutations at the target site ([1]; PDSa and PDSb)	TSWV clearance rate (regenerated plants free of virus) [2] [%]	plants with tetra-allelic mutations at the crPDS1 target site ([1]; 40 mg/L ribavirin in medium) [%]	proportion of Chi types compared to the mock group ([1]; M0 plants, PDSa and PDSb)	presence of viral vectors in the regenerated plants [3]	proportion of mutation types in regenerated plants [4]	percentage of regenerated plants carrying target mutations ([4]; HTS)
NC(=O)c1nc(F)c[nH]c1=O [favipiravir]	lower than that of the mock group	significantly higher than that of the mock group	lowest mutation rates						
NC(=O)c1ncn([C@@H]2O[C@H](CO)[C@@H](O)[C@H]2O)n1 [ribavirin]		increased in both homoeologs	highest proportion of plants with mutations	100	28.9	decreased	effectively cleared the virus from all of the regenerated plants	increased the proportion of various mutation types	significantly higher than that in the control treatment and other drug treatment groups
